Data on 24 compounds can be found in patent US9115093B2, “Substituted bicyclic dihydropyrimidinones and their use as inhibitors of neutrophil elastase activity” (Boehringer Ingelheim International GmbH, priority 2013, dated 2015).

The assay concerns the target T1, neutrophil elastase (Homo sapiens, UniProt P08246).
T1 sequence (P08246 30-247 limits assumed): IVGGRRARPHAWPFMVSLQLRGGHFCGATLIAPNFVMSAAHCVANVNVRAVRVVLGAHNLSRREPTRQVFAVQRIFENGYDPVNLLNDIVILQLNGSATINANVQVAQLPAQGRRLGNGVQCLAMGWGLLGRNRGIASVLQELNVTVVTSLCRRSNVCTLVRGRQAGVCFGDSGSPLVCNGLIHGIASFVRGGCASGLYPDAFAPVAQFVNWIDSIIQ
The assay is described as follows: Human Neutrophil Elastase Assay. The following applies: substrate MeOSuc-Ala-Ala-Pro-Val-AMC, pH 7.5, room temperature. In kind it is biochemical. Details: purchased Calbiochem 324681. As to the method:
Human Neutrophil Elastase Assay
Materials: Human neutrophil elastase was purchased from Calbiochem (Cat.No.: 324681) and the elastase substrate MeOSuc-Ala-Ala-Pro-Val-AMC from Bachem (Cat.No.: I-1270). All other materials were of the highest grade commercially available.
The following buffers were used: Compound buffer: 100 mM Tris, 500 mM NaCl, adjusted to pH 7.5; Assay buffer: 100 mM Tris, 500 mM NaCl, adjusted to pH 7.5, containing 0.01% BSA.
Assay conditions: Test compounds were prediluted in DMSO and subsequently in compound buffer (5% DMSO final). 5 μL of these compound dilutions were mixed with 10 μl Neutrophil elastase (9 ng/ml in assay buffer) in a black 384 well OptiPlate (Perkin Elmer, Cat No.: 6007270) and incubated for 15 min at room temperature. Subsequently 10 μL substrate solution in assay buffer were added (250 nM final concentration) and the plates were incubated for 60 min at room temperature. After inactivation of the enzyme, fluorescence intensities were measured at 380 nm excitation and 460 nm emission wavelengths.
Each plate contains wells with a high value control (DMSO+enzyme+substrate) and wells with a low value control (DMSO+inactivated enzyme+substrate). IC50 values were estimated using a sigmoidal concentration response curve with variable slope. Means of low values were taken as 0%, means of high values as 100%.

Each structure is given as a SMILES string.

With `CC1(C)CCC2=C(C1=O)C(c1ccc(C#N)cc1)NC(=O)N2c1cccc(C(F)(F)F)c1` (stereo not drawn) [Example 2, 4-(6,6-Dimethyl-2,5-dioxo-1-(3-(trifluoromethyl)phenyl)-1,2,3,4,5,6,7,8-octahydroquinazolin-4-yl)benzonitrile], the half-inhibitory concentration (IC50) (in general, the concentration that gives 50% inhibition) is 44.9 nM.

`CC1(C)CC(=O)C2=C(C1)N(c1cccc(C(F)(F)F)c1)C(=O)NC2c1ccc(C#N)cc1` (stereo not drawn) [Example 3, 4-(7,7-Dimethyl-2,5-dioxo-1-(3-(trifluoromethyl)phenyl)-1,2,3,4,5,6,7,8-octahydroquinazolin-4-yl)benzonitrile]: the 50% inhibitory concentration (IC50) came out at 68.3 nM.

Take `N#Cc1ccc(C2NC(=O)N(c3cccc(C(F)(F)F)c3)C3=C2C(=O)CC2(CCOCC2)C3)cc1` (stereo not drawn) [Example 4, 4-(2′,5′-Dioxo-1′-(3-(trifluoromethyl)phenyl)-2,2′,3,3′,4′,5,5′,6,6′,8′-decahydro-1′H-spiro[pyran-4,7′-quinazoline]-4′-yl)benzonitrile]: the IC50 turned out to be 110 nM.

`N#Cc1ccc(C2NC(=O)N(c3cccc(C(F)(F)F)c3)C3=C2C(=O)CC(C(F)(F)F)C3)cc1` (stereo not drawn) [Example 5, 4-(2,5-Dioxo-7-(trifluoromethyl)-1-(3-(trifluoromethyl)phenyl)-1,2,3,4,5,6,7,8-octahydroquinazolin-4-yl)benzonitrile] returned an IC50 of 65.8 nM.

For the compound `N#Cc1ccc(C2NC(=O)N(c3cccc(C(F)(F)F)c3)C3=C2C(=O)CC(c2ccccc2)C3)cc1` (stereo not drawn) [Example 6, 4-(2,5-dioxo-7-phenyl-1-(3-(trifluoromethyl)phenyl)-1,2,3,4,5,6,7,8-octahydroquinazolin-4-yl)benzonitrile], the IC50 came to 47.6 nM.

In turn, `N#Cc1ccc(C2NC(=O)N(c3cccc(C(F)(F)F)c3)C3=C2C(=O)CC(c2ccc(C(F)(F)F)cc2)C3)cc1` (stereo not drawn) [Example 7, 4-(2,5-Dioxo-1-(3-(trifluoromethyl)phenyl)-7-(4-(trifluoromethyl)phenyl)-1,2,3,4,5,6,7,8-octahydroquinazolin-4-yl)benzonitrile] registered a half-inhibitory concentration (IC50) of 212 nM.

As for `COc1cc(C2CC(=O)C3=C(C2)N(c2cccc(C(F)(F)F)c2)C(=O)NC3c2ccc(C#N)cc2)cc(OC)c1OC` (stereo not drawn) [Example 8, 4-(2,5-Dioxo-1-(3-(trifluoromethyl)phenyl)-7-(3,4,5-trimethoxyphenyl)-1,2,3,4,5,6,7,8-octahydroquinazolin-4-yl)benzonitrile], the IC50 turned out to be 26.3 nM.

In turn, `N#Cc1ccc(C2NC(=O)N(c3cccc(C(F)(F)F)c3)C3=C2C(=O)CC(c2cccs2)C3)cc1` (stereo not drawn) [Example 9, 4-(2,5-Dioxo-7-(thiophen-2-yl)-1-(3-(trifluoromethyl)phenyl)-1,2,3,4,5,6,7,8-octahydroquinazolin-4-yl)benzonitrile] yielded an IC50 of 41.7 nM.

As to `N#Cc1ccc(C2NC(=O)N(c3cccc(C(F)(F)F)c3)C3=C2C(=O)CC(C(=O)O)C3)cc1` (stereo not drawn) [Example 10, 4-(4-Cyanophenyl)-2,5-dioxo-1-(3-(trifluoromethyl)phenyl)-1,2,3,4,5,6,7,8-octahydroquinazoline-7-carboxylic acid], the IC50 was found to be 48.5 nM.

On to `COC(=O)C1CC(=O)C2=C(C1)N(c1cccc(C(F)(F)F)c1)C(=O)NC2c1ccc(C#N)cc1` (stereo not drawn) [Example 11, Methyl 4-(4-Cyanophenyl)-2,5-dioxo-1-(3-(trifluoromethyl)phenyl)-1,2,3,4,5,6,7,8-octahydroquinazoline-7-carboxylate], for which the IC50 turned out to be 39.4 nM.

`N#Cc1ccc(C2NC(=O)N(c3cccc(C(F)(F)F)c3)C3=C2C(=O)CC(C(N)=O)C3)cc1` (stereo not drawn) [Example 12, 4-(4-Cyanophenyl)-2,5-dioxo-1-(3-(trifluoromethyl)phenyl)-1,2,3,4,5,6,7,8-octahydroquinazoline-7-carboxamide] yielded an IC50 of 43.4 nM.

As to `N#Cc1ccc(C2NC(=O)N(c3cc(C(F)(F)F)ccn3)C3=C2C(=O)CCC3)cc1` (stereo not drawn) [Example 13, 4-(2,5-Dioxo-1-(4-(trifluoromethyl)pyridin-2-yl)-1,2,3,4,5,6,7,8-octahydroquinazolin-4-yl)benzonitrile], 110 nM corresponded to half-maximal inhibition (IC50).

`N#Cc1ccc(C2NC(=O)N(c3ccnc(C(F)(F)F)c3)C3=C2C(=O)CCC3)cc1` (stereo not drawn) [Example 14, 4-(2,5-Dioxo-1-(2-(trifluoromethyl)pyridin-4-yl)-1,2,3,4,5,6,7,8-octahydroquinazolin-4-yl)benzonitrile] registered an IC50 of 70.3 nM.

Turning to `N#Cc1ccc(C2NC(=O)N(c3cccc(C(F)(F)F)c3)C3=C2C(=O)CCC3)nc1` (stereo not drawn) [Example 15, 6-(2,5-Dioxo-1-(3-(trifluoromethyl)phenyl)-1,2,3,4,5,6,7,8-octahydroquinazolin-4-yl)-nicotinonitrile], half-maximal inhibition (IC50) was put at 52.1 nM.

With `N#Cc1ccc(C2NC(=O)N(c3cccc(C(F)(F)F)c3)C3=C2C(=O)CCC3)cn1` (stereo not drawn) [Example 16, 5-(2,5-dioxo-1-(3-(trifluoromethyl)phenyl)-1,2,3,4,5,6,7,8-octahydroquinazolin-4-yl)-picolinonitrile], the midpoint of inhibition, the IC50, lay at 54.1 nM.

Consider `N#Cc1ccc(C2NC(=O)N(c3cccc(C(F)F)c3)C3=C2C(=O)CCC3)cc1` (stereo not drawn) [Example 17, 4-(1-(3-(Difluoromethyl)phenyl)-2,5-dioxo-1,2,3,4,5,6,7,8-octahydroquinazolin-4-yl)-benzonitrile], for which it took 23.2 nM to reach half-maximal inhibition (IC50).

The compound `CCCCN1C(=O)N(c2cccc(C(F)(F)F)c2)C2=C(C(=O)CCC2)C1c1ccc(C#N)cc1` (stereo not drawn) [Example 21, 4-(3-Butyl-1-(3-(trifluoromethyl)phenyl)-2,5-dioxo-1,2,3,4,5,6,7,8-octahydroquinazolin-4-yl)benzonitrile] yielded an IC50 of 19.4 nM.

As for `COCCN1C(=O)N(c2cccc(C(F)(F)F)c2)C2=C(C(=O)CCC2)C1c1ccc(C#N)cc1` (stereo not drawn) [Example 22, 4-(1-(3-(Trifluoromethyl)phenyl)-3-(2-methoxyethyl)-2,5-dioxo-1,2,3,4,5,6,7,8-octahydroquinazolin-4-yl)benzonitrile], the half-maximal inhibitory concentration (IC50) turned out to be 8.7 nM.

In turn, `N#Cc1ccc(C2C3=C(CCCC3=O)N(c3cccc(C(F)(F)F)c3)C(=O)N2CCCN2CCCC2)cc1` (stereo not drawn) [Example 23, 4-(1-(3-(Trifluoromethyl)phenyl)-2,5-dioxo-3-(3-(pyrrolidin-1-yl)propyl)-1,2,3,4,5,6,7,8-octahydroquinazolin-4-yl)benzonitrile] gave an IC50 of 10.7 nM.

Consider `COCCCN1C(=O)N(c2cccc(C(F)(F)F)c2)C2=C(C(=O)CCC2)C1c1ccc(C#N)cc1` (stereo not drawn) [Example 24, 4-(1-(3-(Trifluoromethyl)phenyl)-3-(3-methoxypropyl)-2,5-dioxo-1,2,3,4,5,6,7,8-octahydroquinazolin-4-yl)benzonitrile], for which the IC50 came out at 6.4 nM.

In turn, `Cn1nccc1CN1C(=O)N(c2cccc(C(F)(F)F)c2)C2=C(C(=O)CCC2)C1c1ccc(C#N)cc1` (stereo not drawn) [Example 24.1] gave an IC50 of 6.6 nM.

`Cn1cc(CN2C(=O)N(c3cccc(C(F)(F)F)c3)C3=C(C(=O)CCC3)C2c2ccc(C#N)cc2)cn1` (stereo not drawn) [Example 24.2] displayed a 50% inhibitory concentration (IC50) of 9.8 nM.

As for `Cn1ccc(CN2C(=O)N(c3cccc(C(F)(F)F)c3)C3=C(C(=O)CCC3)C2c2ccc(C#N)cc2)n1` (stereo not drawn) [Example 24.3], the IC50 came to 11.1 nM.

`N#Cc1ccc(C2C3=C(CCCC3=O)N(c3cccc(C(F)(F)F)c3)C(=O)N2CC2CCOC2)cc1` (stereo not drawn) [Example 25, 4-(1-(3-(Trifluoromethyl)phenyl)-2,5-dioxo-3-((tetrahydrofuran-3-yl)methyl)-1,2,3,4,5,6,7,8-octahydroquinazolin-4-yl)benzonitrile]: the IC50 amounted to 8.6 nM.
